Structures are written as SMILES. *1 amine or outer side, *2 acyl side, *3 side chain or, on linkers, in order; H or OH if unused. Where a SMILES comes first, the peptide text is derived from it. [ ]: non-standard residue; d: D form. X34 = O=C(C[C@@H](Cc1ccccc1)C(=O)[*:2])C12CC(CN[*:1])(C1)C2; cBu(1-CO,cis-3-CH2NH) = O=C([C@H]1C[C@@H](CN[*:1])C1)[*:2]; Ala(1-bicyclo(1.1.1)pentyl) = N[C@@H](CC12CC(C1)C2)C(=O)O; NMeNva(5-imidazol-1-yl) = CN[C@@H](CCCn1ccnc1)C(=O)O; X59 = O=C([C@H](Cc1ccc(CN2CCCC2)cc1)N[*:1])[*:2]; Ala(pyrimidin-5-yl) = N[C@@H](Cc1cncnc1)C(=O)O; NMe3Pal(5-F) = CN[C@@H](Cc1cncc(F)c1)C(=O)O; NMePhe(3-Me) = CN[C@@H](Cc1cccc(C)c1)C(=O)O; X42 = O=C([C@H](Cc1cc(F)ncc1F)N[*:1])[*:2]; X11 = CC(C)(F)CC[C@H](N[*:1])C(=O)[*:2]; X13 = O=C([C@H](Cc1ccncc1F)N[*:1])[*:2]; X15 = O=C([C@H](Cc1cnccc1F)N[*:1])[*:2]; Nle(5,5-F2) = CC(F)(F)CC[C@H](N)C(=O)O; X28 = O=C([C@H](Cc1ncccn1)N[*:1])[*:2]; Phe(2-F) = N[C@@H](Cc1ccccc1F)C(=O)O; Abu(4,4-F2) = N[C@@H](CC(F)F)C(=O)O; NMe3Pal = CN[C@@H](Cc1cccnc1)C(=O)O; X1 = O=C(C12CC(CN[*:1])(C1)C2)[*:2]; Ala(cPr) = N[C@@H](CC1CC1)C(=O)O; NMeF = CN[C@@H](Cc1ccccc1)C(=O)O; PhLac = O=C(O)[C@@H](O)Cc1ccccc1; 3Pal = N[C@@H](Cc1cccnc1)C(=O)O; hLeu = CC(C)CC[C@H](N)C(=O)O; NMeA = CN[C@@H](C)C(=O)O; Nle = CCCC[C@H](N)C(=O)O

The target in this assay is KRAS-G12D protein (Homo sapiens, UniProt P01116, G12D). Description: SOS-mediated nucleotide exchange assay (BODIPY-GDP / Tb-streptavidin TR-FRET). The assay is classed as biochemical. A general note: In TR-FRET formats the signal depends on donor and acceptor labels being close together.
Chain of KRAS-G12D protein (P01116 1-188 isoform P01116-2 G12D): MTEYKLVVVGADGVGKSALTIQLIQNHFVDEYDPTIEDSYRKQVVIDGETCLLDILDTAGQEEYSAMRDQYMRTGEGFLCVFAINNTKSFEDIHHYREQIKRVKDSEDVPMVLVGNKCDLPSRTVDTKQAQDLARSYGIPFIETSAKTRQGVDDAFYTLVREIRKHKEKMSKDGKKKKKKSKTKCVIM
`CCCC[C@@H]1NC(=O)[C@H](Cc2ccc(CN3CCCC3)cc2)NC(=O)[C@H](CCCn2ccnc2)N(C)C(=O)[C@H](Cc2ccccc2)N(C)C(=O)C23CC(CNC(=O)[C@H](Cc4cccnc4)N(C)C(=O)[C@H](CCCC)NC(=O)[C@H](Cc4ccccc4F)NC1=O)(C2)C3` [compound 259, cyclo(NMeF-NMeNvalmid-Phe4cPyrr-Nle-Phe2F-Nle-NMe3Pal-amBCP)] (cyclo([NMe3Pal][X1][NMeF][NMeNva(5-imidazol-1-yl)][X59][Nle][Phe(2-F)][Nle])): the half-maximal effective concentration (EC50) (as a rule, the concentration at which the effect is half-maximal) was 3220 nM. Next, `CC(C)CC[C@@H]1NC(=O)[C@H](Cc2ccccc2F)NC(=O)[C@H](CC2CC2)NC(=O)[C@H](Cc2cncnc2)NC(=O)[C@H](C)N(C)C(=O)[C@H](Cc2ccccc2)OC(=O)C23CC(CNC(=O)[C@H](Cc4ccccc4)N(C)C1=O)(C2)C3` [compound 260, cyclo(FLac-NMeA-PyrimAla-cPrA-Phe2F-hL-NMeF-amBCP)] (cyclo([Ala(cPr)][Phe(2-F)][hLeu][NMeF][X1][PhLac][NMeA][Ala(pyrimidin-5-yl)])): 1.95 nM; `CCCC[C@@H]1NC(=O)[C@H](Cc2ccc(CN3CCCC3)cc2)NC(=O)[C@H](CCCn2ccnc2)N(C)C(=O)[C@H](Cc2ccccc2)NC(=O)C23CC(CNC(=O)[C@H](Cc4cccnc4)N(C)C(=O)[C@H](CCCC)NC(=O)[C@H](Cc4ccccc4F)NC1=O)(C2)C3` [compound 263, cyclo(F-NMeNvaImid-Phe4cPyrr-Nle-Phe2F-Nle-NMe3Pal-amBCP)] (cyclo(F[NMeNva(5-imidazol-1-yl)][X59][Nle][Phe(2-F)][Nle][NMe3Pal][X1])): 42.1 nM.

The compound `CCCC[C@@H]1NC(=O)[C@H](Cc2cccnc2)NC(=O)[C@H](CCCn2ccnc2)N(C)C(=O)[C@H](Cc2ccccc2)N(C)C(=O)C23CC(CNC(=O)[C@H](Cc4cccnc4)N(C)C(=O)[C@H](CCCC)NC(=O)[C@H](Cc4ccccc4F)NC1=O)(C2)C3` [compound 264, cyclo(NMeF-NMeNvalmid-3Pal-Nle-Phe2F-Nle-NMe3Pal-amBCP)] (cyclo([3Pal][Nle][Phe(2-F)][Nle][NMe3Pal][X1][NMeF][NMeNva(5-imidazol-1-yl)])) showed an EC50 of 4030 nM. Next, `CCCC[C@@H]1NC(=O)[C@H](Cc2cccnc2)NC(=O)[C@H](CCCn2ccnc2)N(C)C(=O)[C@H](Cc2ccccc2)NC(=O)C23CC(CNC(=O)[C@H](Cc4cccnc4)N(C)C(=O)[C@H](CCCC)NC(=O)[C@H](Cc4ccccc4F)NC1=O)(C2)C3` [compound 265, cyclo(F-NMeNvalmid~3Pal-Nle-Phe2F-Nlc-NMe3Pal-amBCP)] (cyclo(F[NMeNva(5-imidazol-1-yl)][3Pal][Nle][Phe(2-F)][Nle][NMe3Pal][X1])): 90.9 nM; `CCCC[C@@H]1NC(=O)[C@H](Cc2ccc(CN3CCCC3)cc2)NC(=O)[C@H](CCCn2ccnc2)N(C)C(=O)[C@H](Cc2ccccc2)NC(=O)[C@H]2C[C@@H](CNC(=O)[C@H](Cc3cccnc3)N(C)C(=O)[C@H](CCCC)NC(=O)[C@H](Cc3ccccc3F)NC1=O)C2` [compound 266, cyclo(F-NMeNvalmid-Phe4cPyrr-Nle-Phe2F-Nle-NMe3Pal-c3amCb1c)] (cyclo(F[NMeNva(5-imidazol-1-yl)][X59][Nle][Phe(2-F)][Nle][NMe3Pal][cBu(1-CO,cis-3-CH2NH)])): 215 nM; `C[C@H]1C(=O)N[C@@H](Cc2cncnc2)C(=O)N[C@@H](CC2CC2)C(=O)N[C@@H](Cc2ccccc2F)C(=O)N[C@@H](CC2CC2)C(=O)N(C)[C@@H](Cc2ccccc2)C(=O)NCC23CC(C2)(C3)C(=O)O[C@@H](Cc2ccccc2)C(=O)N1C` [compound 267, cyclo(FLac-NMeA-PyrimAla-cPrA-Phe2F-cPrA-NMeF-amBCP)] (cyclo([Ala(cPr)][NMeF][X1][PhLac][NMeA][Ala(pyrimidin-5-yl)][Ala(cPr)][Phe(2-F)])): 471 nM. Next, `C[C@H]1C(=O)N[C@@H](Cc2cncnc2)C(=O)N[C@@H](CC2CC2)C(=O)N[C@@H](Cc2ccccc2F)C(=O)N[C@@H](CC(F)F)C(=O)N(C)[C@@H](Cc2ccccc2)C(=O)NCC23CC(C2)(C3)C(=O)O[C@@H](Cc2ccccc2)C(=O)N1C` [compound 271, cyclo(FLac-NMeA-PyrimAla-cPrA-Phe2F-AbuF2-NMeF-amBCP)] (cyclo([Ala(cPr)][Phe(2-F)][Abu(4,4-F2)][NMeF][X1][PhLac][NMeA][Ala(pyrimidin-5-yl)])): 730 nM; `CC(C)CC[C@@H]1NC(=O)[C@H](Cc2ccccc2F)NC(=O)[C@H](CC23CC(C2)C3)NC(=O)[C@H](Cc2cncnc2)NC(=O)[C@H](C)N(C)C(=O)[C@H](Cc2ccccc2)OC(=O)C23CC(CNC(=O)[C@H](Cc4ccccc4)N(C)C1=O)(C2)C3` [compound 272, cyclo(FLac-NMeA-PyrimAla-AlaPent-Phe2F-hL-NMeF-amBCP)] (cyclo([NMeA][Ala(pyrimidin-5-yl)][Ala(1-bicyclo(1.1.1)pentyl)][Phe(2-F)][hLeu][NMeF][X1][PhLac])): 477 nM. Then `C[C@H]1C(=O)N[C@@H](Cc2cncnc2)C(=O)N[C@@H](CC2CC2)C(=O)N[C@@H](Cc2ccccc2F)C(=O)N[C@@H](CCC(C)(C)F)C(=O)N(C)[C@@H](Cc2ccccc2)C(=O)NCC23CC(C2)(C3)C(=O)C[C@@H](Cc2ccccc2)C(=O)N1C` [compound 273, cyclo(CPhe-NMeA-PyrimAla-cPrA-Phe2F-hL3F-NMeF-amBCP)] (cyclo([Ala(cPr)][Phe(2-F)][X11][NMeF][X34][NMeA][Ala(pyrimidin-5-yl)])), with 1 nM; and `Cc1cccc(C[C@H]2C(=O)NCC34CC(C3)(C4)C(=O)O[C@@H](Cc3ccccc3)C(=O)N(C)[C@@H](C)C(=O)N[C@@H](Cc3cncnc3)C(=O)N[C@@H](CC3CC3)C(=O)N[C@@H](Cc3ccccc3F)C(=O)N[C@@H](CCC(C)(C)F)C(=O)N2C)c1` [compound 274, cyclo(FLac-NMeA-PyrimAla-cPrA-Phe2F-hL3F-NMePhe3Me-amBCP)] (cyclo([Ala(cPr)][Phe(2-F)][X11][NMePhe(3-Me)][X1][PhLac][NMeA][Ala(pyrimidin-5-yl)])), with 1 nM; and `Cc1cccc(C[C@H]2C(=O)NCC34CC(C3)(C4)C(=O)O[C@@H](Cc3ccccc3)C(=O)N(C)[C@@H](C)C(=O)N[C@@H](Cc3cncnc3)C(=O)N[C@@H](CC3CC3)C(=O)N[C@@H](Cc3ccccc3F)C(=O)N[C@@H](CCC(C)(F)F)C(=O)N2C)c1` [compound 275, cyclo(FLac-NMeA-PyrimAla-cPrA-Phe2F-Nle3F2-NMePhe3Me-amBCP)] (cyclo([Ala(cPr)][Phe(2-F)][Nle(5,5-F2)][NMePhe(3-Me)][X1][PhLac][NMeA][Ala(pyrimidin-5-yl)])), with 1 nM.

With `C[C@H]1C(=O)N[C@@H](Cc2cncnc2)C(=O)N[C@@H](CC2CC2)C(=O)N[C@@H](Cc2ccccc2F)C(=O)N[C@@H](CCC(C)(F)F)C(=O)N(C)[C@@H](Cc2ccccc2)C(=O)NCC23CC(C2)(C3)C(=O)O[C@@H](Cc2ccccc2)C(=O)N1C` [compound 276, cyclo(FLac-NMeA-PyrimAla-cPrA-Phe2F-Nle3F2-NMeF-amBCP)] (cyclo([Ala(cPr)][Phe(2-F)][Nle(5,5-F2)][NMeF][X1][PhLac][NMeA][Ala(pyrimidin-5-yl)])), a half-maximal effect (EC50) was put at 1 nM.

Compound `C[C@H]1C(=O)N[C@@H](Cc2cncnc2)C(=O)N[C@@H](CC2CC2)C(=O)N[C@@H](Cc2ccccc2F)C(=O)N[C@@H](CCC(C)(C)F)C(=O)N(C)[C@@H](Cc2ccccc2)C(=O)NCC23CC(C2)(C3)C(=O)O[C@@H](Cc2ccccc2)C(=O)N1C` [compound 277, cyclo(FLac-NMeA-PyrimAla-cPrA-Phe2F-hL3F-NMeF-amBCP)] (cyclo([Ala(cPr)][Phe(2-F)][X11][NMeF][X1][PhLac][NMeA][Ala(pyrimidin-5-yl)])) returned an EC50 of 2 nM. Then `Cc1cccc(C[C@H]2C(=O)NCC34CC(C3)(C4)C(=O)O[C@@H](Cc3ccccc3)C(=O)N(C)[C@@H](C)C(=O)N[C@@H](Cc3cncnc3)C(=O)N[C@@H](CC3CC3)C(=O)N[C@@H](Cc3cnccc3F)C(=O)N[C@@H](CCC(C)C)C(=O)N2C)c1` [compound 278, cyclo(FLac-NMeA-PyrimAla-cPrA-3Pal6F-hL-NMePhe3Me-amBCP)] (cyclo([Ala(cPr)][X15][hLeu][NMePhe(3-Me)][X1][PhLac][NMeA][Ala(pyrimidin-5-yl)])), with 2 nM.

Turning to `Cc1cccc(C[C@H]2C(=O)NCC34CC(C3)(C4)C(=O)O[C@@H](Cc3ccccc3)C(=O)N(C)[C@@H](C)C(=O)N[C@@H](Cc3cncnc3)C(=O)N[C@@H](CC3CC3)C(=O)N[C@@H](Cc3ccncc3F)C(=O)N[C@@H](CCC(C)C)C(=O)N2C)c1` [compound 279, cyclo(FLac-NMeA-PyrimAla-cPrA-4Pal2F-hL-NMePhe3Me-amBCP)] (cyclo([Ala(cPr)][X13][hLeu][NMePhe(3-Me)][X1][PhLac][NMeA][Ala(pyrimidin-5-yl)])), the concentration giving a half-maximal response (EC50) came out at 3 nM.

`CC(C)CC[C@@H]1NC(=O)[C@H](Cc2cc(F)ncc2F)NC(=O)[C@H](CC2CC2)NC(=O)[C@H](Cc2cncnc2)NC(=O)[C@H](C)N(C)C(=O)[C@H](Cc2ccccc2)OC(=O)C23CC(CNC(=O)[C@H](Cc4ccccc4)N(C)C1=O)(C2)C3` [compound 280, cyclo(FLac-NMcA-PyrimAla-cPrA-4Pal25F2-hL-NMeF-amBCP)] (cyclo([Ala(cPr)][X42][hLeu][NMeF][X1][PhLac][NMeA][Ala(pyrimidin-5-yl)])) registered a concentration giving a half-maximal response (EC50) of 4 nM. The compound `CC(C)CC[C@@H]1NC(=O)[C@H](Cc2ccccc2F)NC(=O)[C@H](CC2CC2)NC(=O)[C@H](Cc2ncccn2)NC(=O)[C@H](C)N(C)C(=O)[C@H](Cc2ccccc2)OC(=O)C23CC(CNC(=O)[C@H](Cc4ccccc4)N(C)C1=O)(C2)C3` [compound 281, cyclo(FLac-NMeA-2PyrimAla-cPrA-Phe2F-hL-NMeF-amBCP)] (cyclo([Ala(cPr)][Phe(2-F)][hLeu][NMeF][X1][PhLac][NMeA][X28])) displayed an EC50 of 1210 nM.

The compound `CC(C)CC[C@@H]1NC(=O)[C@H](Cc2ccccc2F)NC(=O)[C@H](CC2CC2)NC(=O)[C@H](Cc2cncnc2)NC(=O)[C@H](C)N(C)C(=O)[C@H](Cc2ccccc2)OC(=O)C23CC(CNC(=O)[C@H](Cc4cncc(F)c4)N(C)C1=O)(C2)C3` [compound 282, cyclo(FLac-NMeA-PyrimAla-cPrA-Phe2F-hL-NMe3Pal5F-amBCP)] (cyclo([Ala(cPr)][Phe(2-F)][hLeu][NMe3Pal(5-F)][X1][PhLac][NMeA][Ala(pyrimidin-5-yl)])) displayed a 50% effective concentration (EC50) of 2 nM.

For the origin of these results see patent US20260001914A1, “MACROCYCLIC PEPTIDES TARGETING KRAS” (Merck Sharp & Dohme LLC, priority 2022, published 2026).
